In patent US9505834B2, “Methods for controlling the galactosylation profile of recombinantly-expressed proteins” (AbbVie Inc., priority 2011, dated 2016):

What was measured:
[1] = tested on: adalimumab-producing CHO cell line; experiment: Example 2 oligosaccharide analysis, HyClone CDM4CHO, batch shake flasks; type: cell-based, Chinese Hamster
Procedure: (§1) For all studies with CHO cell lines described throughout this invention, samples were collected daily and measured for cell density and viability using a Cedex cell counter. Retention samples for titer analysis via Poros A method were collected by centrifugation at 12,000 RPM for 5 min when the culture viability began declining. The cultures were harvested by collecting 125 mL aliquots and centrifuging at 3,000 RPM for 30 min when culture viability was near or below 50%. All supernatants were stored at −80° C. until analysis.
(§2) For all studies, the harvest samples were Protein A purified and prepared for the oligosaccharide assay using the following procedures. As a first step in the process of establishing the identity and quantifying the oligosaccharides, they are released from the protein by enzymatic digestion with N-glycanase. Once the glycans are released, the free reducing end of each glycan is labeled by reductive amination with a fluorescent tag, 2-aminobenzamide (2-AB). The resulting labeled glycans are separated by normal-phase HPLC (NP-HPLC) in acetonitrile: 50 mM ammonium formate, pH 4.4, and detected by a fluorescence detector. Quantitation is based on the relative area percent of detected sugars. Throughout this invention, the relative area percentages of the agalactosyl fucosylated biantennary oligosaccharides, denoted as NGA2F+NGA2F-GlcNAc sum, and the galactose-containing fucosylated biantennary oligosaccharides NA1F+NA2F sum are reported and discussed.
Growth and production media for the adalimumab-producing CHO cell line were prepared using Thermo Scientific HyClone chemically defined media CDM4CHO without L-glutamine (Catalogue #SH30558.02). […] All media were filtered through Corning 0.5 L or 1 L (0.22 μm PES) filter systems and stored at 4° C. until use.
(§3) Upon thaw, cells were adapted to and expanded in HyClone CDM4CHO media for 5 (2 to 3 day each) passages in a combination of 250 mL, 500 mL, and 1000 mL Corning vented non-baffled shake flasks. Production cultures were initiated in duplicate 500 mL Corning vented non-baffled shake flasks (200 mL working volume) at an initial VCD of approximately 0.5×10^6 cells/mL. Cultures were maintained on orbital shakers at 110 RPM in a dry incubator at 35° C. and 5% CO2. A glucose solution (1.25% (v/v) of 40% solution) was fed when the media glucose concentration fell below 3 g/L. […]

[2] = tested on: adalimumab-producing NSO cell line; experiment: Example 6 oligosaccharide analysis, CDM PFBM-3/PFFM-4, fed-batch shake flasks; type: cell-based
Source text: as §2
Growth and production media for the adalimumab-producing NSO cell line were prepared using a proprietary Life Technologies Gibco chemically defined media, PFBM-3 basal medium plus PFFM-4 feed medium.
Upon thaw, cells were expanded for 3 to 5 (2 days each) passages in a combination of 250 mL, 500 mL, 1 L, 2 L and 3 L Corning vented non-baffled shake flasks. Production cultures were initiated in single 1 L Corning vented non-baffled shake flasks (240 mL initial working volume) at an initial VCD of approximately 2.5×10^5 cells/mL. Cultures were maintained on orbital shakers at 100 RPM in a dry incubator at 37° C. and 5% CO2. The shake flask study was run in a fed-batch mode and the culture was fed PFFM-4 as follows: 24 mL—day 2, 28.8 mL—day 4, 28.8 mL—day 6, and 28.8 mL—day 8.
Samples were collected every 2 days and measured for cell density and viability using a Cedex cell counter. Retention samples for titer analysis via Poros A method were collected daily beginning on Day 8 by centrifugation at 2,000 g for 10 min and then filtered through 0.2 μm PVDF syringe filter. The cultures were harvested on production day 10. The entire culture was collected, chilled on ice to approximately 0° C. for 1.5 hours, the cells and debris flocculated at pH 5.0 by the addition of 1M citric acid and held for 15 minutes, and centrifuged at 4000x g for 15 min at 5° C. The supernatant was passed through 0.20 μm Millipore Stericup PES filters, and, immediately post filtration, the acidified clarified cell-free harvest was neutralized with 2M Tris to pH 7.1±0.2. The cell free harvest was transferred to PETG bottles and stored at −80° C. until analysis.
Galactose was supplemented at the following levels in both production and feed media: 0, 1, 4, 5, and 10 mM.

[3] = tested on: CHO cell line producing mAb #1; experiment: Example 7 oligosaccharide analysis, CDM GIA-1, batch shake flasks; type: cell-based, Chinese Hamster
Procedure: as §1, §2
(§4) Growth and production media for the CHO cell line producing mAb #1 were prepared using a proprietary Life Technologies Gibco chemically defined media, GIA-1. […] All media were filtered through Corning 0.5 L or 1 L filter systems (0.22 μm PES) and stored at 4° C. until use.
as §3, with “were” for “were adapted to and”, “expanded” for “expanded in HyClone CDM4CHO media”, “6 (3” for “5 (2 to 3”, “125” for “110”

[4] = tested on: CHO cell line producing mAb #1; experiment: Example 7 culture growth & productivity; type: cell-based, Chinese Hamster
Procedure: as §1, §4
as §3, with “were” for “were adapted to and”, “expanded” for “expanded in HyClone CDM4CHO media”, “6 (3” for “5 (2 to 3”, “125” for “110”

[5] = manganese chloride alone, range 0 to 40 μM
[6] = 0.5 μM manganese chloride alone

Molecule | decrease in the NGA2F+NGA2F-GlcNac sum ([1]; 40 μM manganese chloride alone) [%] | maximum decrease in the NGA2F+NGA2F-GlcNac sum [1, 5] [%] | maximum increase in the NA1F+NA2F sum [1, 5] [%] | decrease in the NGA2F+NGA2F-GlcNac sum ([2]; 0.2 μM manganese chloride alone) [%] | increase in the NA1F+NA2F sum [2, 6] [%] | maximum decrease in the NGA2F+NGA2F-GlcNac sum [2, 6] [%] | decrease in the NGA2F+NGA2F-GlcNac sum ([3]; 40 μM manganese chloride alone) [%] | maximum decrease in the NGA2F+NGA2F-GlcNac sum [3, 5] [%] | maximum increase in the NA1F+NA2F sum [3, 5] [%] | culture growth ([4]; manganese chloride alone 0 to 20 μM) | decrease in the NGA2F+NGA2F-GlcNac sum ([1]; 40 mM galactose alone) [%] | increase in the NA1F+NA2F sum ([1]; galactose alone up to 40 mM) [%] | maximum decrease in the NGA2F+NGA2F-GlcNac sum ([1]; galactose alone up to 40 mM) [%] | decrease in the NGA2F+NGA2F-GlcNac sum ([2]; 4 mM galactose alone) [%] | increase in the NA1F+NA2F sum ([2]; 10 mM galactose alone) [%] | maximum decrease in the NGA2F+NGA2F-GlcNac sum ([2]; 10 mM galactose alone) [%] | decrease in the NGA2F+NGA2F-GlcNac sum ([3]; 40 mM galactose alone) [%] | maximum decrease in the NGA2F+NGA2F-GlcNac sum ([3]; galactose alone up to 40 mM) [%] | maximum increase in the NA1F+NA2F sum ([3]; galactose alone up to 40 mM) [%] | culture growth ([4]; galactose alone)
Manganese (II) Chloride [manganese chloride] | 5 | 5 | 4 | 12 | 20 | 18 | 20 | 26 | 27 | grew comparable to the control cultures | – | – | – | – | – | – | – | – | – | –
O=C[C@H](O)[C@@H](O)[C@@H](O)[C@H](O)CO [galactose, D(+)Galactose] | – | – | – | – | – | – | – | – | – | – | 6 | 6 | 6 | 2 | 15 | 14 | 12 | 12 | 13 | grew to a lower maximum VCD compared to the control
